Assay results: US20240165274A1, “METHODS OF DETECTING SYSTEMIC AMYLOIDOSIS VIA BINDING TO MISFOLDED OR AGGREGATED PROTEIN” (Amydis, Inc., priority 2021, published 2024)

Experiments:
[1] = test system: TTR deposits in human tissues; assay: Staining of FFPE human tissue sections with vitreous amyloid, co-stained with TTR antibody; details: compound 60 μM, 30 minutes; adjacent sections stained with Congo red and H&E; present-tense example, binding 'contemplated'
Experimental: The following protocol was adopted for staining Formalin-Fixed Paraffin Embedded (FFPE) tissues: • 1. Deparaffinization and hydration of tissue sections: • Pre-heat @ 60° C. 1 hour • Place slides in holders and treat with the clearing agent xylene (paraffin solvent) and a series of graded ethanol (EtOH) as follows: • i. 100% xylene—5 min • ii. 100% xylene—5 min • iii. 50%/50% xylene/100% EtOH—3 min • iv. 100% EtOH—3 min • v. 95% EtOH—3 min • vi. 70% EtOH—3 min • vii. 50% EtOH—3 min • viii. Water—2×3 min. • 2. Antigen retrieval: incubate in 99% formic acid for 5 minutes. • 3. Wash with distilled water for 5 minutes. Repeat this step two times. • 4. Pre-heat 10 mM citrate buffer pH 6.0 to boiling. • 5. Place slides in staining chamber with heated citrate buffer for 20 minutes. • 6. Cool in water bath. Wash with distilled water for 5 minutes. Repeat this step two times. • 7. […]
Sections from tissues of vitreous amyloid with known TTR mutation (paraffin embedded tissue blocks) and an autopsy eyeball with vitreous amyloid (paraffin embedded organ) are respectively stained with hematoxylin and eosin (H&E) and Congo red to mark regions with amyloidosis. […] It is contemplated that Compound 1 binds to TTR deposits in human tissues and undergoes an increase in fluorescence emission in a manner similar to its increase in fluorescence in vitro in the presence of aggregated TTR as described in earlier examples.

aggregated TTR [2] = target: T1, aggregated TTR (Homo sapiens, UniProt P02766); assay: Fluorescence spectra of Compound 1 with TTR aggregates; details: excitation 440 nm; for Fluorescence fold increase: Compound 1 4 μM, emission 565 nm, RFI over Compound 1 alone
Experimental: Several aggregated TTR samples were prepared using different conditions as described below. • Aggregate A was prepared by resuspending TTR in 50 mM glycine buffer at a pH of about 3.6 and further incubating the same for 24 hours at room temperature. • Aggregate B1 was prepared by resuspending TTR in water at a pH of about 7.4, and further incubating the same for 7 days with stirring (200 rpm) maintained at 37° C. • Aggregate B2 was prepared by resuspending TTR in water at a pH of about 7.4, and further incubating the same for 14 days with stirring (200 rpm) maintained at 37° C.
Compound 1 (4 μM) was prepared with or without Aggregate B1 in 1× phosphate-buffered saline (PBS). The absorption, fluorescence, and excitation spectra were taken for both samples. The excitation wavelength was optimized to be 440 nm. The emission spectra thus received were adjusted against a blank solvent control to obtain relative fluorescence intensity (RFI) as a function of wavelengths.
Further, fluorescence spectra were taken on mixtures of Compound I (4 μM) with Aggregate A, B1, or B2, respectively, each at the concentration of 5 μM, at the emission wavelength of 565 nm, when excited at 440 nm. The increases in RFI over Compound 1 alone were calculated and are illustrated in Table 1: […]

aggregated TTR [3] = target: T1, aggregated TTR; assay: Binding affinity for Compound 1 with aggregated TTR (fluorescence titration, one site specific binding); details: 5 μM TTR, 4% DMSO/PBS pH 7.4; Compound 1 0 to 10 μM; RFI at λmax(em); FIG. 2
Experimental: A solution of DMSO/PBS (6 μL DMSO in 144 μL PBS, pH 7.4) was prepared as a blank control. Further, a 250 μM solution of Compound 1 in DMSO was prepared. The following samples were then prepared in triplicate while keeping a constant 5 μM TTR concentration in 4% DMSO/PBS:
Emission spectra were taken for each sample and adjusted against the blank over the range of 445-700 nm. RFI at λmax(em) was determined for each sample. RFI was then plotted against the increasing concentration of Compound 1 over the range of 0 to 10 μM using a one site specific binding algorithm. The binding affinity (Kd) was determined to be 0.3+/−0.1 μM. This is illustrated in FIG. 2.

Fluorescence fold increase (aggregated TTR [2]; Aggregate A 5 μM): 4.6 fold
Fluorescence fold increase (aggregated TTR [2]; Aggregate B1 5 μM): 2.3 fold
Fluorescence fold increase (aggregated TTR [2]; Aggregate B2 5 μM): 2.5 fold
increase of relative fluorescence intensity (RFI) in presence of aggregate (aggregated TTR [2]; Compound 1 4 μM with vs without Aggregate B1 in 1× PBS, FIG. 1): about 3.2
Kd (aggregated TTR [3]): 300 nM
Structure (SMILES): COCCOCCOCCOC(=O)/C(C#N)=C/c1ccc2cc(N3CCCCC3)ccc2c1 [Compound 1]
regions of hyperfluorescence versus areas of amyloidosis [1]: correspond to areas of amyloidosis defined using Congo Red and H&E stains
